Source: patent US12214092B2, “Systems and methods for treating biological fluids” (Cerus Corporation, priority 2017, dated 2025)

Test system: platelets
Test: Platelet quality, apheresis platelets in 100% plasma, 15 μM S-59, INT-100 (~3.6 J/cm^2) or 340 nm LED 1x/2x/3x (~3.6/7.2/10.8 J/cm^2)
Format: cell-based
From the text: Additional units were illuminated with the INT-100 device at ˜3.6 J/cm^2 for comparison or maintained as an untreated control. […] As shown in the following Tables 11-19, for platelet quality parameters, results were generally similar among the controls and INT-100 and 340 nm test samples, except for the 3×340 nm dosage for certain parameters.

SMILES: Cc1oc2c(C)c3oc(=O)cc(C)c3cc2c1COCCN [S-59, 3-(2-aminoethoxymethyl)-2,5,9-trimethylfuro[3,2-g]chromen-7-one]
- Adenosine triphosphate (ATP) (340 nm (1x), D3): 4.4 mmole/10^8 platelets
- Glucose (340 nm (1x), D3): 13.49 mmol/L
- LDH (340 nm (1x), D3): 12.1 LDH IU/10^11 platelets
- Lactate (340 nm (1x), D3): 15.17 mmol/L
- Platelet counts (340 nm (1x), D3): 1391 ×10^3 cells/μL
- Platelet lysis (340 nm (1x), D3): 4.90%
- pCO2 at 37° C. (340 nm (1x), D3): 54.4 mmHg
- pH at 37° C. (340 nm (1x), D3): 6.84
- pO2 at 37° C. (340 nm (1x), D3): 11.8 mmHg
- Adenosine triphosphate (ATP) (340 nm (1x), D5): 4.0 mmole/10^8 platelets
- Glucose (340 nm (1x), D5): 10.27 mmol/L
- LDH (340 nm (1x), D5): 12.1 LDH IU/10^11 platelets
- Lactate (340 nm (1x), D5): 19.81 mmol/L
- Platelet counts (340 nm (1x), D5): 1338 ×10^3 cells/μL
- Platelet lysis (340 nm (1x), D5): 4.43%
- pCO2 at 37° C. (340 nm (1x), D5): 35.7 mmHg
- pH at 37° C. (340 nm (1x), D5): 6.70
- pO2 at 37° C. (340 nm (1x), D5): 22.5 mmHg
- Adenosine triphosphate (ATP) (340 nm (1x), D7): 3.7 mmole/10^8 platelets
- Glucose (340 nm (1x), D7): 8.32 mmol/L
- LDH (340 nm (1x), D7): 13.1 LDH IU/10^11 platelets
- Lactate (340 nm (1x), D7): 21.83 mmol/L
- Platelet counts (340 nm (1x), D7): 1391 ×10^3 cells/μL
- Platelet lysis (340 nm (1x), D7): 5.23%
- pCO2 at 37° C. (340 nm (1x), D7): 34.3 mmHg
- pH at 37° C. (340 nm (1x), D7): 6.58
- pO2 at 37° C. (340 nm (1x), D7): 16.6 mmHg
- Glucose (340 nm (1x), Post-UVA): 17.45 mmol/L
- LDH (340 nm (1x), Post-UVA): 11.3 LDH IU/10^11 platelets
- Lactate (340 nm (1x), Post-UVA): 9.05 mmol/L
- Platelet counts (340 nm (1x), Post-UVA): 1366 ×10^3 cells/μL
- Platelet lysis (340 nm (1x), Post-UVA): 4.48%
- pCO2 at 37° C. (340 nm (1x), Post-UVA): 91.9 mmHg
- pH at 37° C. (340 nm (1x), Post-UVA): 6.89
- pO2 at 37° C. (340 nm (1x), Post-UVA): 14.3 mmHg
- Adenosine triphosphate (ATP) (340 nm (1x), Pre-UVA): 4.0 mmole/10^8 platelets
- LDH (340 nm (1x), Pre-UVA): 10.5 LDH IU/10^11 platelets
- Platelet counts (340 nm (1x), Pre-UVA): 1453 ×10^3 cells/μL
- Platelet lysis (340 nm (1x), Pre-UVA): 4.30%
- pCO2 at 37° C. (340 nm (1x), Pre-UVA): 89.6 mmHg
- pH at 37° C. (340 nm (1x), Pre-UVA): 6.90
- pO2 at 37° C. (340 nm (1x), Pre-UVA): 41.8 mmHg
- Adenosine triphosphate (ATP) (340 nm (2x), D3): 4.4 mmole/10^8 platelets
- Glucose (340 nm (2x), D3): 13.63 mmol/L
- LDH (340 nm (2x), D3): 12.1 LDH IU/10^11 platelets
- Lactate (340 nm (2x), D3): 14.55 mmol/L
- Platelet counts (340 nm (2x), D3): 1317 ×10^3 cells/μL
- Platelet lysis (340 nm (2x), D3): 4.59%
- pCO2 at 37° C. (340 nm (2x), D3): 54.5 mmHg
- pH at 37° C. (340 nm (2x), D3): 6.86
- pO2 at 37° C. (340 nm (2x), D3): 14.8 mmHg
- Adenosine triphosphate (ATP) (340 nm (2x), D5): 4.1 mmole/10^8 platelets
- Glucose (340 nm (2x), D5): 10.69 mmol/L
- LDH (340 nm (2x), D5): 13.0 LDH IU/10^11 platelets
- Lactate (340 nm (2x), D5): 19.06 mmol/L
- Platelet counts (340 nm (2x), D5): 1370 ×10^3 cells/μL
- Platelet lysis (340 nm (2x), D5): 4.92%
- pCO2 at 37° C. (340 nm (2x), D5): 37.5 mmHg
- pH at 37° C. (340 nm (2x), D5): 6.72
- pO2 at 37° C. (340 nm (2x), D5): 15.3 mmHg
- Adenosine triphosphate (ATP) (340 nm (2x), D7): 3.7 mmole/10^8 platelets
- Glucose (340 nm (2x), D7): 8.34 mmol/L
- LDH (340 nm (2x), D7): 13.2 LDH IU/10^11 platelets
- Lactate (340 nm (2x), D7): 22.13 mmol/L
- Platelet counts (340 nm (2x), D7): 1376 ×10^3 cells/μL
- Platelet lysis (340 nm (2x), D7): 5.19%
- pCO2 at 37° C. (340 nm (2x), D7): 36.4 mmHg
- pH at 37° C. (340 nm (2x), D7): 6.56
- pO2 at 37° C. (340 nm (2x), D7): 14.1 mmHg
- Glucose (340 nm (2x), Post-UVA): 16.98 mmol/L
- LDH (340 nm (2x), Post-UVA): 12.1 LDH IU/10^11 platelets
- Lactate (340 nm (2x), Post-UVA): 8.77 mmol/L
- Platelet counts (340 nm (2x), Post-UVA): 1301 ×10^3 cells/μL
- Platelet lysis (340 nm (2x), Post-UVA): 4.50%
- pCO2 at 37° C. (340 nm (2x), Post-UVA): 94.1 mmHg
- pH at 37° C. (340 nm (2x), Post-UVA): 6.89
- pO2 at 37° C. (340 nm (2x), Post-UVA): 14.2 mmHg
- Adenosine triphosphate (ATP) (340 nm (2x), Pre-UVA): 3.9 mmole/10^8 platelets
- LDH (340 nm (2x), Pre-UVA): 10.5 LDH IU/10^11 platelets
- Platelet counts (340 nm (2x), Pre-UVA): 1448 ×10^3 cells/μL
- Platelet lysis (340 nm (2x), Pre-UVA): 4.30%
- pCO2 at 37° C. (340 nm (2x), Pre-UVA): 88.5 mmHg
- pH at 37° C. (340 nm (2x), Pre-UVA): 6.90
- pO2 at 37° C. (340 nm (2x), Pre-UVA): 45.9 mmHg
- Adenosine triphosphate (ATP) (340 nm (3x), D3): 3.8 mmole/10^8 platelets
- Glucose (340 nm (3x), D3): 10.87 mmol/L
- LDH (340 nm (3x), D3): 11.6 LDH IU/10^11 platelets
- Lactate (340 nm (3x), D3): 20.42 mmol/L
- Platelet counts (340 nm (3x), D3): 1372 ×10^3 cells/μL
- Platelet lysis (340 nm (3x), D3): 4.78%
- pCO2 at 37° C. (340 nm (3x), D3): 62.5 mmHg
- pH at 37° C. (340 nm (3x), D3): 6.56
- pO2 at 37° C. (340 nm (3x), D3): 27.7 mmHg
- Adenosine triphosphate (ATP) (340 nm (3x), D5): 0.4 mmole/10^8 platelets
- Glucose (340 nm (3x), D5): 1.33 mmol/L
- LDH (340 nm (3x), D5): 16.0 LDH IU/10^11 platelets
- Lactate (340 nm (3x), D5): 36.09 mmol/L
- Platelet counts (340 nm (3x), D5): 1550 ×10^3 cells/μL
- Platelet lysis (340 nm (3x), D5): 6.62%
- pCO2 at 37° C. (340 nm (3x), D5): 13.9 mmHg
- pH at 37° C. (340 nm (3x), D5): 5.57
- pO2 at 37° C. (340 nm (3x), D5): 159.5 mmHg
- Adenosine triphosphate (ATP) (340 nm (3x), D7): −0.1 mmole/10^8 platelets
- Glucose (340 nm (3x), D7): 0.43 mmol/L
- LDH (340 nm (3x), D7): 33.7 LDH IU/10^11 platelets
- Lactate (340 nm (3x), D7): 36.36 mmol/L
- Platelet counts (340 nm (3x), D7): 1474 ×10^3 cells/μL
- Platelet lysis (340 nm (3x), D7): 16.6%
- pCO2 at 37° C. (340 nm (3x), D7): 4.4 mmHg
- pH at 37° C. (340 nm (3x), D7): 5.49
- pO2 at 37° C. (340 nm (3x), D7): 178.6 mmHg
- Glucose (340 nm (3x), Post-UVA): 16.77 mmol/L
- LDH (340 nm (3x), Post-UVA): 12.1 LDH IU/10^11 platelets
- Lactate (340 nm (3x), Post-UVA): 9.48 mmol/L
- Platelet counts (340 nm (3x), Post-UVA): 1322 ×10^3 cells/μL
- Platelet lysis (340 nm (3x), Post-UVA): 4.77%
- pCO2 at 37° C. (340 nm (3x), Post-UVA): 98.1 mmHg
- pH at 37° C. (340 nm (3x), Post-UVA): 6.87
- pO2 at 37° C. (340 nm (3x), Post-UVA): 19.7 mmHg
- Adenosine triphosphate (ATP) (340 nm (3x), Pre-UVA): 3.6 mmole/10^8 platelets
- LDH (340 nm (3x), Pre-UVA): 10.5 LDH IU/10^11 platelets
- Platelet counts (340 nm (3x), Pre-UVA): 1452 ×10^3 cells/μL
- Platelet lysis (340 nm (3x), Pre-UVA): 4.30%
- pCO2 at 37° C. (340 nm (3x), Pre-UVA): 98.2 mmHg
- pH at 37° C. (340 nm (3x), Pre-UVA): 6.87
- pO2 at 37° C. (340 nm (3x), Pre-UVA): 90.9 mmHg
- Adenosine triphosphate (ATP) (INT-100, D3): 4.3 mmole/10^8 platelets
- Glucose (INT-100, D3): 13.11 mmol/L
- LDH (INT-100, D3): 11.9 LDH IU/10^11 platelets
- Lactate (INT-100, D3): 14.71 mmol/L
- Platelet counts (INT-100, D3): 1395 ×10^3 cells/μL
- Platelet lysis (INT-100, D3): 4.69%
- pCO2 at 37° C. (INT-100, D3): 55.8 mmHg
- pH at 37° C. (INT-100, D3): 6.82
- pO2 at 37° C. (INT-100, D3): 18.9 mmHg
- Adenosine triphosphate (ATP) (INT-100, D5): 4.0 mmole/10^8 platelets
- Glucose (INT-100, D5): 10.26 mmol/L
- LDH (INT-100, D5): 11.6 LDH IU/10^11 platelets
- Lactate (INT-100, D5): 20.18 mmol/L
- Platelet counts (INT-100, D5): 1400 ×10^3 cells/μL
- Platelet lysis (INT-100, D5): 4.50%
- pCO2 at 37° C. (INT-100, D5): 36.4 mmHg
- pH at 37° C. (INT-100, D5): 6.67
- pO2 at 37° C. (INT-100, D5): 20.1 mmHg
- Adenosine triphosphate (ATP) (INT-100, D7): 3.5 mmole/10^8 platelets
- Glucose (INT-100, D7): 8.19 mmol/L
- LDH (INT-100, D7): 12.6 LDH IU/10^11 platelets
- Lactate (INT-100, D7): 23.31 mmol/L
- Platelet counts (INT-100, D7): 1439 ×10^3 cells/μL
- Platelet lysis (INT-100, D7): 5.18%
- pCO2 at 37° C. (INT-100, D7): 35.0 mmHg
- pH at 37° C. (INT-100, D7): 6.54
- pO2 at 37° C. (INT-100, D7): 19.7 mmHg
- Glucose (INT-100, Post-UVA): 17.24 mmol/L
- LDH (INT-100, Post-UVA): 11.5 LDH IU/10^11 platelets
- Lactate (INT-100, Post-UVA): 8.85 mmol/L
- Platelet counts (INT-100, Post-UVA): 1415 ×10^3 cells/μL
- Platelet lysis (INT-100, Post-UVA): 4.74%
- pCO2 at 37° C. (INT-100, Post-UVA): 91.4 mmHg
- pH at 37° C. (INT-100, Post-UVA): 6.89
- pO2 at 37° C. (INT-100, Post-UVA): 36.4 mmHg
- Adenosine triphosphate (ATP) (INT-100, Pre-UVA): 3.9 mmole/10^8 platelets
- LDH (INT-100, Pre-UVA): 10.3 LDH IU/10^11 platelets
- Platelet counts (INT-100, Pre-UVA): 1481 ×10^3 cells/μL
- Platelet lysis (INT-100, Pre-UVA): 4.30%
- pCO2 at 37° C. (INT-100, Pre-UVA): 101.1 mmHg
- pH at 37° C. (INT-100, Pre-UVA): 6.87
- pO2 at 37° C. (INT-100, Pre-UVA): 98.4 mmHg
